On the set-up of data set [1]: species or system human. The following applies: in vivo. Here is the method:
(§1) Twenty-two eligible subjects, six without cognitive impairment and 16 with cognitive impairment, were enrolled and block-randomized within impairment strata to receive 250 mg of VPA or placebo twice daily. Cognitive impairment was defined as performance at least one standard deviation below the mean on two or more neuropsychological tests, or at least two standard deviations below the mean on one neuropsychological test, using normative data previously applied by the Dana cohort (Dana 1996). Subjects were evaluated at 2, 6, and 10 weeks for adverse clinical and laboratory experiences. Neuropsychological evaluations (see Table 3) were performed at screening, week 6, and week 10 along with global assessments of functioning (subject and investigator), the Fatigue Severity Scale, and the Center for Epidemiologic Studies Depression Scale. A neurological examination and CD4+/CD8+ counts were performed at screening and week 10, while plasma HIV viral load was measured at baseline and week 10.
Tolerability was assessed based on the proportion of subjects able to complete the 10-week study at the original dose of study medication. Safety measures included the occurrences of adverse events and abnormal results on laboratory tests. […]

Data set [2] has as its system subjects with HIV-associated cognitive impairment. Briefly: Neuropsychological evaluations, VPA adjunctive therapy trial. The format is in vivo, human. The procedure:
as §1
(§2) Tolerability was assessed based on the proportion of subjects able to complete the 10-week study at the original dose of study medication. Safety measures included the occurrences of adverse events and abnormal results on laboratory tests. Measures of efficacy included changes from baseline in: neuropsychological test scores; the Investigator Clinical Global Impression; MRI indices; functioning; and mood. The study was designed to provide approximately 80% power to detect a 45% difference in tolerability (i.e. 95% versus 50%) between the placebo and VPA groups using a one-sided Fisher's exact test at the 5% level of significance.
Changes from baseline were assessed using paired t-tests. Comparisons between treatment arms were based on unequal-variance two-sample t-tests for continuous variables, and Fisher's Exact Tests for categorical variables. Comparisons between treatment arms were adjusted for baseline values using Analysis of Covariance. Primary statistical analyses were performed according to the intention-to-treat principle, using the last-observation-carried-forward imputation strategy for subjects who prematurely dropped out of the study. Secondary analyses excluded such subjects.

Data set [3] shares this test system. Briefly: Investigator Clinical Global Impression. The conditions noted are these: human, in vivo. Here is the method: as §2
For another data set, the system named is HIV. As to the kind of experiment: Plasma HIV viral load. The data set is classed as in vivo. The following applies: individual subjects on VPA (three subjects; the first changed antiretroviral therapy); listed as VPA. Here is the method:
as §1

Data set [4] concerns GSK-3. The conditions noted are these: acting primarily through beta3-adrenoreceptors; similar extent as insulin; Moule et al. 1997; cited from earlier work.
The test system of data set [5] is GSK-3. The conditions noted are these: cited from earlier work.
The next data set has as its target CDK1 (Homo sapiens, UniProt P06493). The following applies: cited from earlier work.
Where [6] appears, read: impaired participants, n = 9, VPA 250 mg twice daily.
Where [7] appears, read: impaired participants, valproic acid minus placebo mean change to week 10, adjusted for baseline, negative = better on valproic acid.
The mark [8] stands for this setting: impaired participants, valproic acid minus placebo mean change to week 10, adjusted for baseline, positive = better on valproic acid.

“And” between values parts separate entries of the source, which are not always exact repeats. Identical values can stand only once.

For orientation: IC50 means the midpoint of a concentration-inhibition curve. The term Ki denotes a dissociation constant, usually derived from enzyme kinetics or from competition with a known ligand.

CDK1, sequence (P06493 whole entry, species assumed): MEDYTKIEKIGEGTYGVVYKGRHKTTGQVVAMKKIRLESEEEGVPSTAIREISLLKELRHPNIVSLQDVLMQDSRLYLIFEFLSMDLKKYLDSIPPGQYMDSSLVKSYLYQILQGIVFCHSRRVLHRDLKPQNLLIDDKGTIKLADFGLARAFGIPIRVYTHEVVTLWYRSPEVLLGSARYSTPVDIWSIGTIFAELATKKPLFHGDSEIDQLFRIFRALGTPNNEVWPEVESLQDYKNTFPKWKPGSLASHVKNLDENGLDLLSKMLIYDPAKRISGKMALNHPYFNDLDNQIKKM
CDK1, sequence (P14635 whole entry partner, species assumed): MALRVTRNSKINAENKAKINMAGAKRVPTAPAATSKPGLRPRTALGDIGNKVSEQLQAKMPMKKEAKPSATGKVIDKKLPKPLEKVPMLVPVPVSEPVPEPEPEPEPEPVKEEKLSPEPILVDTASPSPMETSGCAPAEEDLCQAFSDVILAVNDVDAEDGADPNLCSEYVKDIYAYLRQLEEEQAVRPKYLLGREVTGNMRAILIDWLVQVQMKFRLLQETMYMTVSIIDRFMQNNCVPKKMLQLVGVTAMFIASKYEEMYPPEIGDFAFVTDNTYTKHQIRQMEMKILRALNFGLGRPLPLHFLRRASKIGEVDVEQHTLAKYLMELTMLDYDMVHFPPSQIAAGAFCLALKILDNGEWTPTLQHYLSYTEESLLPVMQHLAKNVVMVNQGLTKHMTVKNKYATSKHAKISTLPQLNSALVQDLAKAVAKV

With `CCCC(CCC)C(=O)O` [Valproic Acid, Valproic acid], in data set [1], the Adverse experience entry is given as “mild new onset of acid reflux” and the “Increase in liver function tests” value is recorded as < 2.5 times the upper limit of normal. Besides, in data set [2] (setting [6]), the “Composite Neuropsychological Z-score, mean change from baseline to week 10” value is 4.56; the “Digit Symbol, mean change from baseline to week 10” value worked out at 6.56; the “Grooved Pegboard Dominant Hand, mean change from baseline to week 10” value is -9.33 s; the “Grooved Pegboard Nondominant Hand, mean change from baseline to week 10” value was -6.44 s. For the same compound, in data set [2] (setting [6]), the “Mean Reaction Time Choice, mean change from baseline to week 10” value was -43.38 ms; the “Mean Reaction Time Sequential, mean change from baseline to week 10” value was -8.63 ms; the “Rey Auditory Verbal Memory Correct Recognition, mean change from baseline to week 10” value is on record as 0.11; the “Rey Auditory Verbal Memory Delayed Recall, mean change from baseline to week 10” value was found to be 1.11. Moreover, in data set [2] (setting [6]), the “Rey Auditory Verbal Memory Recall after Interference, mean change from baseline to week 10” value was −0.22; the “Rey Auditory Verbal Memory Trial 5, mean change from baseline to week 10” value is on record as 0.78; the “Timed Gait, mean change from baseline to week 10” value was -0.65 s. Also, in data set [2] (setting [7]), the “Grooved Pegboard Dominant Hand, Treatment Effect” value was -10.56 s; the “Grooved Pegboard Nondominant Hand, Treatment Effect” value is -4.53 s; the “Mean Reaction Time Choice, Treatment Effect” value was 5.67 ms; the “Mean Reaction Time Sequential, Treatment Effect” value came out at 29.08 ms. The “Timed Gait, Treatment Effect” value in data set [2] (setting [7]) was -0.25 s. Besides, in data set [2] (setting [8]), the “Composite Neuropsychological Z-score, Treatment Effect” value turned out to be 2.31; the “Digit Symbol, Treatment Effect” value is recorded as 5.02; the “Rey Auditory Verbal Memory Correct Recognition, Treatment Effect” value is recorded as 1.16; the “Rey Auditory Verbal Memory Delayed Recall, Treatment Effect” value is reported as 1.82. In addition, in data set [2] (setting [8]), the “Rey Auditory Verbal Memory Recall after Interference, Treatment Effect” value was determined as 1.57; the “Rey Auditory Verbal Memory Total, Treatment Effect” value amounted to 2.22; the “Rey Auditory Verbal Memory Trial 5, Treatment Effect” value is −0.38. Further, in data set [2] (impaired subjects, VPA vs placebo), the “Between group differences on independent neuropsychological tests and composite z-score” value is recorded as “not statistically significant”. Also, in data set [3], the “Investigator clinical global impression, placebo vs VPA group” value is reported as “No significant difference”. In the data set on HIV, the “Change in plasma HIV RNA from baseline to week 10” value was 33,300 to 316 copies/ml and 100,000 to 93,900 copies/ml and 32,500 to 24,700 copies/ml.

Take `CC(C)NCC(O)c1ccc(O)c(O)c1` (centres unmarked) [Isoproterenol]: the “Decrease of GSK-3 activity” value in the data set with GSK-3 [4] was “approximately 50%”.

On to `[Be+2]` [Beryllium], for which the IC50 with GSK-3 [5] (read-out: Inhibition potency IC50) was 6 µM; at CDK1, 50 µM.

In the case of GRPRTTS*FAE [Pseudosubstrate peptide], at GSK-3 [5] (read-out: Inhibition potency Ki), the inhibitory constant (Ki) was 700 µM.

The record behind these values is patent publication US20090081318A1, “TREATMENT OF NEUROADS USING INHIBITORS OF GLYCOGEN SYNTHASE KINASE (GSK)-3” (priority 2005, published 2009).
